From US20070004689A1, “Antiangiogenic agents” (priority 2004, published 2007)
Where two headings read alike, the source gives them in different places.

How the values were obtained:
[1] = test system: CYP450 (CYP1A2, CYP2C9, CYP2C19, CYP2D6, CYP3A) in pooled human liver microsomes; test: CYP450 inhibition using human microsomes; format: in vitro ADME; settings: test compound 0.034-25 μM, CYP inhibited
Method: Determination of CYP450 inhibition and IC50 value using human microsomes: CYP450 inhibition provides a measure of potential issues with co-medication, since CYP450 enzymes metabolize many drugs. Microsomal incubation mixtures (500 μL) were prepared in HEPES buffer (50 mM HEPES, 15 mM MgCl2, 0.1 mM EDTA, pH 7.6) containing a NADPH regenerating system (1 mM NADPH, 10 mM glucose-6-phosphate 1 IU glucose-6-phosphate dehydrogenase), pooled human liver microsomes (0.5 mg protein), and 5 μL of 7 concentrations of compounds and positive control inhibitors (see Tables IV, V and VI).
After addition of the compounds or positive control inhibitors, the samples were pre-incubated at 37° C. for approximately 5 minutes. Subsequently, the P450 substrate cocktail were added to the reaction mixture and incubated for 20 minutes at 37° C. Reactions were terminated by the addition of 250 μL of methanol containing 5 μM dextrorphan as an internal standard (IS). The samples were vortexed briefly, placed on ice, and then centrifuged at approximately 12000×g for 5 minutes to remove debris. The supernatant from each sample was then transferred to a separate vial for LC-MS/MS analysis. Analysis to determine the amount of substrate specific metabolites (relative to the control samples) was carried out using reverse phase HPLC with tandem mass spectrometric detection (LC-MS/MS). Analysis of the data was carried out using Micromass MetaboLynx and QuanLynx software Versions 3.5 to determine the amount of the specific substrate metabolites produced in each sample (relative to the control samples).

[2] = test system: Rat hepatocyte suspensions; test: Hepatocyte incubations, rat; format: in vitro ADME; settings: rat hepatocytes, NR = no reaction; for Hepatocyte Rat 60/120′ (1 uM): 60′ / Hepatocyte Rat 60/120′ (5 uM): 60′: 60 minutes; for Hepatocyte Rat 60/120′ (1 uM): 60′ / Hepatocyte Rat 60/120′ (1 uM): 120′: in % (unit assumed); for Hepatocyte Rat 60/120′ (1 uM): 120′ / Hepatocyte Rat 60/120′ (5 uM): 120′: 120 minutes; for Hepatocyte Rat 60/120′ (5 uM): 60′ / Hepatocyte Rat 60/120′ (5 uM): 120′: unit assumed
Method: Hepatocyte Incubations: An in vitro measure of metabolism using cells from rat and human liver. Rat and human hepatocyte suspensions (10^6 cells per mL of serum-free (H)CL15 culture medium) were incubated with 2 concentrations (1 and 5 μM) of each of the compounds. Stock solutions were prepared in DMSO, and were further diluted in culture medium to the final test concentrations. 7-Ethoxycoumarin (7-EC) were included as a positive control substrate for P450. A 0.1 M 7-EC stock solution was prepared in DMSO, and the final assay concentration was 100 μM. The reactions were initiated by the addition of the substrates, incubated at 37° C., and terminated after 0, 60 and 120 minutes by addition of acetonitrile. The positive 7-EC control reactions were stopped with perchloric acid or ZnSO4 and BaOH after 60-minutes of incubation. The reaction mixture was centrifuged to remove the cell debris, and the supernatant was used for subsequent analysis by HPLC/LC-MS. If necessary, the supernatants were flash frozen in liquid N2 and stored at −70° C. until further analysis. HPLC was used to analyze product formation from 7-EC. Analyses to determine the concentration of the test compounds were carried out using reverse phase HPLC with tandem mass spectrometric detection (LC-MS/MS). Samples were analyzed to measure the disappearance of parent compound over time. The rate of metabolism was estimated by fitting a curve to the data for each concentration against time using GraphPad Prism Version 3.02 software.

[3] = test system: Human umbilical vein endothelial cells (HUVEC); test: BrdU proliferation assay, HUVEC (anti-angiogenic activity); format: cell-based; settings: BrdU DNA synthesis, 48 h exposure, read-out: HUVEC (IC50 μM)
From the text: (§1) Cell Culture: Human umbilical vein endothelial cells (HUVEC) were obtained from Clonetics (San Diego, Calif.), MCF7 cells were the kind gift of Dr. Dorraya El Ashry (University of Michigan), MDA-MB-231 a human breast carcinoma, PC3 a human prostate carcinoma, and U87-MG a human glioma, cell lines were obtained from ATCC. HUVEC cultures were maintained for up to 5 passages in EGM containing bovine brain extract (Clonetics) and 1× antibiotic-antimycotic (BioWhittaker, Walkersville, Md.). MDA-MB-231, PC3, U87-MG and MCF-7 cells were maintained in DMEM/F12 (1:1) containing 10% (v/v) fetal bovine serum (Hyclone Laboratories, Logan, Utah) and 1× antibiotic-antimycotic. MCF7 cells were used between passage 60 and passage 100.
(§2) Proliferation Assays: Proliferation was measured by cell counting using a Coulter Zl cell counter (Coulter Corporation, Hialeah, Fla.) or by evaluation of DNA synthesis. Each condition was done in triplicate and experiments were repeated at least twice. To determine estrogenicity of the analogs, MCF7 estrogen-dependent proliferation assays were performed. The cells were seeded in complete media at 10,000 cells/well in a 24 well plate after allowing the cells to adhere overnight and the seeding density was determined by cell counts. Cells were washed with PBS (37° C.) and starved by placing them in IMEM-phenol red free media containing 2% charcoal-dextran fetal bovine-stripped serum (Valley Biomedical, Winchester, Va.) and 1× antibiotic-antimycotic. After 3 days of starvation, cells were treated with or without increasing concentrations of compounds, replacing the media every 2-3 days and counted after 7 days of treatment. In order to ensure that only the added test compounds stimulated growth, experiments were performed only with cell cultures that duplicated less than once during the starvation period. Values are expressed as MCF7 stimulation index (SI) relative to 2ME2 (defined as 1.00). A value less than 1.00 indicates reduced estrogenicity. Estradiol is used as a positive control.
(§3) To determine anti-tumor and anti-angiogenic activities of the analogs, proliferation assays were performed by evaluating detection of DNA synthesis by use of the 5-bromo-2′-deoxyuridine (BrdU) cell proliferation colorimetric ELISA kit from Roche (Indianapolis, Ind.) according to the manufacturer's instructions. For BrdU assays, the cells were seeded at 1,000 cells/well (MDA-MB-231, anti-tumor activity) or 3,000 cells/well (HUVEC, anti-angiogenic activity) in a 96 well plate, allowed to attach overnight and then exposed to the compound for 48 h. IC50 value is the concentration at which cell proliferation is inhibited by 50%.
(§4) Antiproliferative activity of the NCEs were assessed in tumor cell lines (MDA-MB-231 a breast carcinoma, PC3 a prostate carcinoma and U87-MG a glioma) and endothelial cells (HUVEC).

[4] = test system: MDA-MB-231 a human breast carcinoma; test: BrdU proliferation assay, MDA-MB-231 (anti-tumor activity); format: cell-based; settings: BrdU DNA synthesis, 48 h exposure, read-out: MDA-MB-231 (IC50 μM)
From the text: as §1, §2, §3, §4

| Hepatocyte Rat 60/120′ (1 uM): 120′ [2] | Hepatocyte Rat 60/120′ (5 uM): 120′ [2] [%] | IC50 [4] [µM] | Structure (SMILES) | CYP450 inhib. [1] | Hepatocyte Rat 60/120′ (1 uM): 60′ [2] | Hepatocyte Rat 60/120′ (5 uM): 60′ [2] [%] | IC50 [3] [µM] | IC50 ([3]; Homo sapiens, HUVEC) [µM] | IC50 ([4]; Homo sapiens, MDA-MB-231) [µM] |
| --- | --- | --- | --- | --- | --- | --- | --- | --- | --- |
| 67 | 87 | 0.19 ± 0.04 | COc1cc2c(cc1C(N)=O)CC[C@@H]1[C@@H]2CC[C@]2(C)C=CC[C@@H]12 [Compound 63, 3-carboxamide-2-methoxy-1,3,5(10)16-estratetraene] | None | 77 | 78 | 0.13 ± 0.05 | – | – |
| 85 | 83 | 2.37 ± 0.8 | COc1cc2c(cc1C(N)=O)CC[C@@H]1[C@@H]2CC[C@]2(C)CCC[C@@H]12 [Compound 57, (2-Methoxyestra-1,3,5(10)-trien-3-yl)-3-carboxamide] | None | 91 | 95 | 0.96 ± 0.26 | – | – |

| Structure (SMILES) | Hepatocyte Rat 60/120′ (1 uM): 120′ [2] | Hepatocyte Rat 60/120′ (5 uM): 120′ [2] [%] | IC50 [4] [µM] | CYP450 inhib. [1] | Hepatocyte Rat 60/120′ (1 uM): 60′ [2] | Hepatocyte Rat 60/120′ (5 uM): 60′ [2] [%] | IC50 [3] [µM] | IC50 ([3]; Homo sapiens, HUVEC) [µM] | IC50 ([4]; Homo sapiens, MDA-MB-231) [µM] |
| --- | --- | --- | --- | --- | --- | --- | --- | --- | --- |
| C=C1CC[C@H]2[C@@H]3CCc4cc(C(N)=O)c(OC)cc4[C@H]3CC[C@]12C [Compound 60, 2-Methoxy-17-methyleneestra-1,3,5(10)-triene-3-carboxamide] | 87 | – | – | None | 99 | 87 | – | 0.12 ± 0.06 | 0.19 ± 0.08 |
| COc1cc2c(cc1C(N)=O)CC[C@@H]1[C@@H]2CC[C@]2(C)C(=O)CC[C@@H]12 [Compound 54, 2-methoxy-17-oxoestra-1,3,5(10)-triene-3-carboxamide] | – | 101 | – | None | 78 | 95 | – | 5.46 ± 1.57 | 2.2 ± 0.43 |
